In patent US8609725B2, “Method of using beta-hydroxy-beta-methylbutyrate for reducing tumor growth rate” (Abbott Laboratories, priority 2004, dated 2013):

Columns and labels:
[1] = test system: β subunits of the proteasome; experiment: 'Chymotrypsin-like' enzyme activity in PIF-treated murine myotubes; format: cell-based
Method: The functional activity of the β subunits of the proteasome was determined as the ‘chymotrypsin-like’ enzyme activity obtained fluorimetrically according to the method of Orino, E. et al. ATP-dependent reversible association of proteasomes with multiple protein components to form 26S complexes that degrade ubiquitinated proteins in human HL-60 cells. FEBS Lett., 284: 206-210, 1991. Myotubes were exposed to PIF for 24 h with or without EPA or HMB added 2 h prior to PIF and enzyme activity was determined in a supernatant fraction (Whitehouse, A. S. et al. Increased expression of the ubiquitin-proteasome pathway in murine myotubes by proteolysis-inducing factor (PIF) is associated with activation of the transcription factor NF-κB. Br. J. Cancer, 89: 1116-1122, 2003) by the release of aminomethyl coumarin (AMC) from succinyl-LLVY-AMC (0.1 mM) in the presence or absence of the specific proteasome inhibitor lactacystin (10 μM) (Fenteany, G. et al. Lactacystin, proteasome function and cell fate. J. Biol. Chem., 273: 8545-8548, 1998). Only lactacystin suppressible activity was considered to be proteasome specific. Activity was adjusted for the protein concentration of the sample, determined using the Bradford assay (Sigma Chemical Co., Dorset, United Kingdom) using bovine serum albumin as standard.

[2] = test system: gastrocnemius muscle of mice bearing the MAC16 tumor; experiment: Protein synthesis and degradation in gastrocnemius muscle of MAC16 mice; format: in vivo
Method: Protein synthesis was measured by the incorporation of L-[4-3H]phenylalanine during a 2-hour period in which isolated gastrocnemius muscles were incubated at 37° C. in RPMI 1640 without phenol red and saturated with O2/CO2 (19:1). After incubation muscles were rinsed in nonradioactive medium, blotted dry, and homogenized in 4 mL 2% perchloric acid. The rate of protein synthesis was calculated by dividing the protein-bound radioactivity by the acid-soluble (unbound) material. For protein degradation assays animals from the same group as used to measure protein synthesis were given i.p. 0.4 mmol/L L-[4-3H]phenylalanine in PBS (100 μl) 24 hours prior to the assay. Isolated gastrocnemius muscles were extensively washed with PBS and RPMI 1640 before measuring the release of radioactivity into RPMI 1640 over a 2-hour period. The protein-bound activity was determined by homogenizing the muscles in 2% perchloric acid and determining the non-acid-soluble radioactivity (radioactivity in the precipitate). The rate of protein degradation was calculated by dividing the amount of [^3H]phenylalanine radioactivity released into the incubation medium during the 2-hour incubation period by the specific activity of protein-bound [^3H] phenylalanine.

[3] = test system: proteasome 20S α subunits, β subunits and p42; experiment: Western blot of PIF-induced proteasome subunit expression in C2C12 myotubes; format: cell-based, murine; settings: 50 μM; PIF at 4.2 and 10 nM
Method: For Western blot analysis, cytosolic protein (2 to 5 μg) obtained for the above assay were resolved on 10% SDS-PAGE and transferred to 0.45 μm nitrocellulose membrane, which had been blocked with 5% Marvel in PBS, at 4° C. overnight. The primary antibodies were used at a dilution of 1:100 (anti-actin and PKCα); 1:500 (anti-ERK1 and 2); 1:1000 (anti-20S proteasome β-subunit and I-κBα); 1:1500 (anti-20S proteasome α-subunit) or 1:5000 (anti-p42), while the secondary antibodies were used at a dilution of 1:2000. Incubation was carried out for 2 h at room temperature and development was by ECL. Loading was quantitated by actin concentration.

C2C12 myotubes = experiment: PIF-induced total protein degradation in C2C12 myotubes; format: cell-based, murine
Method: C2C12 myotubes were routinely passaged in DMEM supplemented with 10% FCS, glutamine and 1% penicillin-streptomycin under an atmosphere of 10% CO2 in air at 37 °C. Myotubes were formed by allowing confluent cultures to differentiate in DMEM containing 2% HS, with medium changes every 2 days.
PIF was purified from solid MAC16 tumors (Todorov, P. et al. Characterization of a cancer cachectic factor. Nature, 379: 739-742, 1996.) excised from mice with a weight loss of 20 to 25%. Tumors were homogenised in 10 mM Tris-HCl, pH 8.0, containing 0.5 mM phenylmethylsulfonyl fluoride, 0.5 mM EGTA and 1 mM dithiothreitol at a concentration of 5 ml/g tumor. […]
Myotubes in six-well multidishes were labeled with L-[2, 6^−3H] phenylalanine (0.67 mCi/mmole) for 24 h in 2 ml DMEM containing 2% HS. They were then washed three times in PBS followed by a 2 h incubation at 37° C. in DMEM without phenol red until no more radioactivity appeared in the supernatant. These myotubes were then further incubated for 24 h in the presence of PIF, with and without EPA or HMB, in fresh DMEM without phenol red, to prevent quenching of counts, and in the presence of 2 mM cold phenylalanine to prevent reincorporation of radioactivity. The amount of radioactivity released into the medium was expressed as a percentage of control cultures not exposed to PIF to determine total protein degradation.

[4] = HMB 0.25 and 2.5 g/kg daily p.o., 3 days, vs PBS control

SMILES: CC(C)(O)CC(=O)O [HMB, beta-hydroxy-beta-methylbutyric acid]
- attenuation of PIF-induced increase in 'chymotrypsin-like' enzyme activity ([1]; 25 μM HMB): completely attenuated
- attenuation of PIF-induced increase in 'chymotrypsin-like' enzyme activity ([1]; 50 μM): completely attenuated
- protein degradation in gastrocnemius muscle [2, 4]: attenuated
- protein synthesis in gastrocnemius muscle [2, 4]: significantly increased
- increase in the ratio of protein synthesis to protein degradation in muscle ([2]; HMB 0.25 g/kg): 14 fold
- increase in the ratio of protein synthesis to protein degradation in muscle ([2]; HMB 2.5 g/kg): 32 fold
- attenuation of PIF-increased expression of proteasome 20S α subunits, β subunits and p42 [3]: attenuated
- attenuation of PIF induced protein degradation (C2C12 myotubes; 25 μM HMB, at low, but not at high concentrations of PIF): some attenuation
- attenuation of PIF induced protein degradation (C2C12 myotubes; 50 μM, 24 h after addition of PIF): equally effective
